# Assay results published in ChEMBL document CHEMBL1129799, “Homology modeling of metabotropic glutamate receptors. (mGluRs) structural motifs affecting binding modes and pharmacological profile of mGluR1 agonists and competitive antagonists” (J Med Chem, 1996).
# Experiments:
# [1] = target: T1, Metabotropic glutamate receptor 1 (Homo sapiens, UniProt Q13255); experiment: Inhibitory concentration for half maximal inhibition of PI hydrolysis (mGluR1a)
# [2] = target: T1, Metabotropic glutamate receptor 1; experiment: Effective concentration for half maximal stimulation of PI hydrolysis (mGluR1a)
# T1 sequence (Q13255 whole entry): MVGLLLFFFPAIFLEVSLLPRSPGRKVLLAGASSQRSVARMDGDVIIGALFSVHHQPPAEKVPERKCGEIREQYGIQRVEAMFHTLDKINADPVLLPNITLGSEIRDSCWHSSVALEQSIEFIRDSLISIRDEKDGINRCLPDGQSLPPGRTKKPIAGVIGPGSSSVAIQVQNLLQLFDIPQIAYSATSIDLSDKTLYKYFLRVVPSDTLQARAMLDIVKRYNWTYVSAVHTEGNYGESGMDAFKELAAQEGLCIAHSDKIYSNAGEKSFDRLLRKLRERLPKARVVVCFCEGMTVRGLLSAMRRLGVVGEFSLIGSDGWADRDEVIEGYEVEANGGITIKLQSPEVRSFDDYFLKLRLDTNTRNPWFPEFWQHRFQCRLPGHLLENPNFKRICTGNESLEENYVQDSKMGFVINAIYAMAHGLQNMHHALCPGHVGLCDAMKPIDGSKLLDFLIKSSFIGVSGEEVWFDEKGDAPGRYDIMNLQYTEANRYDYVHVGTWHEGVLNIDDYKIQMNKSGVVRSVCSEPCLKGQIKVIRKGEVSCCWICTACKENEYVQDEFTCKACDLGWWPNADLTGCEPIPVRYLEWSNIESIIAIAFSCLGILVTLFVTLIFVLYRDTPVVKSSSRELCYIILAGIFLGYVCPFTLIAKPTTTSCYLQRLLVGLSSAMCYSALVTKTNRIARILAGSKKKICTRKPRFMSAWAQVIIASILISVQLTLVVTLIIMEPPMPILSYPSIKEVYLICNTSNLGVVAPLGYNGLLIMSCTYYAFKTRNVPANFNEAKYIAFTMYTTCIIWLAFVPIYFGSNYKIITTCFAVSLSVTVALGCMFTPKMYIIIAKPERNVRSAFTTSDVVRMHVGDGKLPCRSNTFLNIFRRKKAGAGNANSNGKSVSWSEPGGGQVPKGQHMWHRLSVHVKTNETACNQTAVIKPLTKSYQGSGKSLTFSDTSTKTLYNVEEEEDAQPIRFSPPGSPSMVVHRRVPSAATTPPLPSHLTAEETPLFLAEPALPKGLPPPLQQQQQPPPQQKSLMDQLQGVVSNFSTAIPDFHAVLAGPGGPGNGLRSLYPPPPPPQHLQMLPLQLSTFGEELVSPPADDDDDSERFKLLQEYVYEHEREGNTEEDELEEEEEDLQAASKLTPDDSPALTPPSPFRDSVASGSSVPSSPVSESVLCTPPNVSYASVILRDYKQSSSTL
IC50 [1] [µM],Structure (SMILES),EC50 [2] [µM]
290,N[C@H](C(=O)O)c1ccc(O)c(C(=O)O)c1,–
214,NC1(C(=O)O)CCc2cc(C(=O)O)ccc21 (stereo unspecified),–
40,N[C@H](C(=O)O)c1ccc(C(=O)O)c(O)c1,–
–,N[C@H](C(=O)O)c1cccc(O)c1,68
65,N[C@H](C(=O)O)c1ccc(C(=O)O)cc1,–
–,N[C@H](C(=O)O)c1cc(=O)[nH]o1 [IBOTENIC ACID],6
